Patent US20050106554A1, “Cryopreservation of pluripotent stem cells” (priority 2003, published 2005)

Tests used:
[1] = test system: HES cells; experiment: Trypan blue exclusion after cryopreservation of HES colonies in suspension; format: cell-based, human; conditions: DMSO 0 to 10% in freezing medium, Trypan blue (FIG. 1)
Experimental: In order to cryopreserve ES cells in suspension, cells were grown to approximately 1000-10,000 cell colonies on Matrigel™ or a MEF feeder layer. Average colony size was determined by counting colony number in a representative sample, then dispersing cells in the colony by treatment with 10 mg/ml dispase and counting cell number. 1 mg/ml collagenase was used to detach colonies from the plate and the colonies were resuspended in freezing medium containing FBS, DMSO and CM at varying concentrations. Cells were not dispersed during freezing. The solution was not seeded to form extracellular ice. 1 ml of 1-3×10^5 cells/ml were placed in a cryovial and frozen at approximately −1° C. per minute. Initial studies were performed by placing cells in a Nalgene Cryo 1° C. freeze container in a −80° C. freezer, and later samples were frozen in a controlled-rate freezer (Forma Scientific, Model 8026). […] After reaching −80° C., cells were stored in liquid nitrogen. HES cells were harvested from a flat-bottomed 24-well tissue culture plate coated with Matrigel™ by addition of trypsin-EDTA (0.25% trypsin, 1 mM EDTA) until colonies were completely dispersed. HES cells were resuspended in 500 μl HES medium containing 10% FBS. […] Total cell number and the fraction of cells that incorporated Trypan blue were counted on a hemacytometer. […]

[2] = test system: HES cells; experiment: Cell viability by MTT and Alamar blue assays after cryopreservation of adherent HES colonies; format: cell-based, human
Experimental: In this example, cells were grown to approximately 1000-10,000 cell colonies on Matrigel™ or a MEF feeder layer in a 24 well plate. Average colony size was determined by counting colony number in a representative sample, then dispersing cells in the colony by treatment with 10 mg/ml dispase and counting cell number. The growth medium was aspirated from each well and a top layer of Matrigel™ was poured over the adherent colonies by diluting 6 mg Matrigel™ in 12 ml CM/F+ (conditioned medium+bFGF) and adding 0.5 ml to each well of the 24 well plate. The plate was incubated at 37° C. in a humidified 5% CO2 incubator for 1 hr and the Matrigel™ solution was aspirated from the plate. Then, 0.5 ml growth medium (HES or CM/F+ was added to each well and cells were cultured in the Matrigel™ for up to 2 days. Growth medium was aspirated from each well and 0.5 ml freezing medium containing varying concentrations of FBS, DMSO, and CM was added to each well. The fresh freezing medium was made on the day of freezing. The freezing medium generally contains 10% DMSO, 30% FBS and 60% conditioned HES media. The medium on the plate was aspirated off and replaced with 0.5 ml freezing medium.
The plate was sealed with parafilm and frozen to −80° C. at −1° C. per minute. Initial studies were performed by placing cells in a parafilm-sealed Styrofoam box in a −80° C. freezer, and later samples were frozen in a controlled-rate freezer (Model 8026, Forma Scientific). […] The solution was not seeded to form extracellular ice. The plates containing the cells were then transferred to liquid nitrogen and stored 5-7 days, which was long enough to stabilize the cells but permitted a reasonable experimental throughput.
To thaw the ES cells, plates were placed in a 37° C. water bath and swirled to thaw as rapidly as possible. After thawing, 1 ml fresh CM/F+ medium was added in a drop-wise manner to each well, then aspirated. Fresh media (0.5 ml) was added to each well and the cells were incubated at 37° C. in a humidified 5% CO2 incubator. […]
HES cells were cultured grown on flat-bottomed 24-well tissue culture plates coated with Matrigel™, with 0.5 ml CM/F+ in each well. […] Within an hour, absorbance at 595 nm was measured on a plate reading spectrophotometer (TECAN Genios). A standard curve for the MTT assay (not shown) was generated by growing HES colonies to different concentrations, ranging from 5×10^4 cells per well to 2×10^6 cells per well (determined by counting dispersed cells on a hemacytometer) on a Matrigel™-coated 24 well plate.
HES cells were cultured on flat-bottomed 24-well tissue culture plates coated with Matrigel™, with 0.5 ml CM/F+ in each well. […] Then absorbance was measured on a TECAN Genios plate reader at 595 nm. […]

[3] = test system: HES colonies; experiment: Colony recovery (colony count) after cryopreservation of adherent HES colonies; format: cell-based, human; conditions: adherent without top Matrigel layer, 5 days after thawing
Experimental: In addition to providing higher cell viability, cryopreservation of adherent colonies increases the number of colonies that are able to remain attached to the surface and eventually grow (i.e., higher recovery rate). […] In referring to FIG. 4, approximately 10^6 HES cells were cultured in the well of a Matrigel™-coated 24 well plate. Colonies in sample a were harvested from the plate as intact colonies (were not dispersed) and suspended in cryopreservation media containing 10% DMSO, 30% FBS, and 60% CM/F+. Samples b-e were preserved attached to the Matrigel™ layer in the same cryopreservation media. Sample b was preserved without an additional layer of Matrigel™ poured over the cells prior to freezing, c with a Matrigel™ layer poured 1 hr prior to freezing, d with a Matrigel™ layer poured 24 hr prior to freezing, and e with a Matrigel™ layer poured 48 hr prior to freezing. All samples were stored in liquid nitrogen and thawed after 3 days, then grown for 1-2 weeks. Colonies were then counted to determine colony recovery. Error bars represent SEM for at least four independent trials.
Loading cells with 35 mM trehalose for 24 hours prior to freezing, and then freezing in medium containing DMSO results in an increase in the number of adherent colonies following thawing; virtually all colonies remain attached to the surface and can grow (FIG. 10). […]

[4] = test system: SSEA4 expression on HES cells; experiment: SSEA4 expression on cryopreserved HES cells by flow cytometry; format: cell-based, human; conditions: attached to Matrigel, loaded with 35 mM trehalose for 1 day; 10% DMSO, 30% FBS, 60% CM/F+ medium
Experimental: SSEA4 expression was determined by flow cytometry. After thawing, cells were allowed to grow on Matrigel™ in CM/F+ medium for 7 days, then colonies were removed from Matrigel™ by 1 mg/ml collagenase IV (GIBCO/BRL) treatment. Cells were dispersed by treatment with a 0.05% trypsin, 0.53 mM EDTA solution (GIBCO/BRL) for 5-10 minutes and filtered through a 40 μm mesh. 100 μl of the cell suspension containing 5×10^6 cells/ml was added to a sample tube and a control tube. 1 μl of MC813-70 (anti-SSEA4) (Kannagi et al. 1983) was added to the test tube and 5 μl of 1 mg/ml mouse IgG (Sigma) was added to the control tube. Tubes were vortexed and incubated on ice for 30 min. […] Samples were analyzed using a FACScan flow cytometer (Becton Dickinson) and Cellquest software (Becton Dickinson). […] The fluorescein signal was obtained through a 530/30 band pass filter and the mean fluorescence values for the IgG control and test samples were determined.
Furthermore, in addition to retention of OCT4 expression (see FIG. 6), applicants observed that when HES colonies were frozen in suspension in cryovials, adherent to Matrigel™, embedded in Matrigel™, and loaded with trehalose were able to maintain SSEA4 expression after recovery (FIG. 11, Table 1). […] The gated region for all samples was determined from the positive control (Sample A). […]

[5] = test system: HES cells; experiment: Toxicity of trehalose in growth medium; format: cell-based, human; conditions: cell exposure to growth medium containing trehalose
[6] = test system: human keratinocytes; conditions: intracellular trehalose on the order of 0.2M; cited from earlier work
[7] = test system: murine 3T3 fibroblasts; conditions: intracellular trehalose on the order of 0.2M; cited from earlier work
[8] = test system: human pancreatic islets; conditions: trehalose formulations added to cryopreserved islets; cited from earlier work
[9] = test system: hematopoeitic precursor cells; conditions: trehalose added to cryopreservation media containing DMSO and FBS; cited from earlier work

In the case of C[S+](C)[O-] [DMSO, dimethyl sulfoxide], the “protection from membrane rupture during cryopreservation” value [1] is reported as “protect HES cells from membrane rupture”.
For OC[C@H]1O[C@H](O[C@H]2O[C@H](CO)[C@@H](O)[C@H](O)[C@H]2O)[C@H](O)[C@@H](O)[C@@H]1O [trehalose], the “increase in viability compared to DMSO alone” value ([2]; 35 mM trehalose loaded 24 hours, 10% DMSO and FBS above 50%, p<0.05) was 25%, the “viability vs loading for 24 hours or not loading” value ([2]; 35 mM trehalose loaded 48 hours) was “lower viability” and the “additional protection during freezing and thawing” value ([2]; 35 mM trehalose loading, 10% DMSO and FBS concentrations less than 50%) was “no additional protection”. The “protection during freezing and thawing” value ([2]; 35 mM trehalose loading, absence of DMSO) was “no protection”, the colonies recovered ([3]; loaded with 35 mM trehalose for 24 hours) was 82%±5% and the colonies recovered ([3]; loaded with 35 mM trehalose for 48 hours) was 48%±10%. The “Percent of cells gated (SSEA4)” value [4] was 81.5, the “trehalose concentration in growth medium causing toxicity” value [5] was “greater than 35 mM” and the “cells surviving a freeze-thaw cycle” value [6] was “approximately 75%”. For the same compound, the “cells surviving a freeze-thaw cycle” value [7] was “approximately 75%”, the viable cell recovery [8] was “doubles” and the increase in viability [9] was 7-20%.
